Experiments:
Assay in all cases: Test C postemergence
Assay type in all cases: in vivo
Details in all cases: scale 0 to 100, 0 is no effect, 100 is complete control
[1] = tested on: johnsongrass (Sorghum halepense)
Summary of the method: (§1)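 Pre- and postemergence greenhouse applications of test chemicals in non-phytotoxic solvent with surfactant; preemergence on seeds in loam/sand, postemergence on plants 2–18 cm (1- to 4-leaf stage) in peat-based medium. Visual rating versus untreated controls after 13–15 days, scale 0 (no effect) to 100 (complete control).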

corn (Zea mays) = tested on: corn (Zea mays)
Summary of the method: as §1

[2] = tested on: morningglory (Ipomoea coccinea)
Summary of the method: as §1

[3] = tested on: waterhemp (common waterhemp, Amaranthus rudis)
Summary of the method: as §1

[4] = tested on: ragweed (common ragweed, Ambrosia elatior)
Summary of the method: as §1

[5] = tested on: chickweed (common chickweed, Stellaria media)
Summary of the method: as §1

soybean (Glycine max) = tested on: soybean (Glycine max)
Summary of the method: as §1

kochia (Kochia scoparia) = tested on: kochia (Kochia scoparia)
Summary of the method: as §1

[6] = tested on: Italian ryegrass (Lolium multiflorum)
Summary of the method: as §1

[7] = tested on: galium (catchweed bedstraw, Galium aparine)
Summary of the method: as §1

wild oat (Avena fatua) = tested on: wild oat (Avena fatua)
Summary of the method: as §1

[8] = tested on: blackgrass (Alopecurus myosuroides)
Summary of the method: as §1

[9] = tested on: large (Lg) crabgrass (Digitaria sanguinalis)
Summary of the method: as §1

[10] = tested on: winter wheat (Triticum aestivum)
Summary of the method: as §1

[11] = tested on: oilseed rape (Brassica napus)
Summary of the method: as §1

[12] = tested on: barnyardgrass (Echinochloa crus-galli)
Summary of the method: as §1

[13] = tested on: pigweed (Amaranthus retroflexus)
Summary of the method: as §1

[14] = tested on: lambsquarters (Chenopodium album)
Summary of the method: as §1

[15] = tested on: velvetleaf (Abutilon theophrasti)
Summary of the method: as §1

O=c1cccc(Oc2ncc(Cl)cn2)n1-c1ccc(C(F)(F)F)cn1 [Compound 7]
Plant response rating, Johnsongrass ([1]; 16 g ai/ha): 5
Plant response rating, Johnsongrass ([1]; 31 g ai/ha): 5
Plant response rating, Johnsongrass ([1]; 62 g ai/ha): 10
Plant response rating, Johnsongrass ([1]; 125 g ai/ha): 10
Plant response rating, Corn (corn (Zea mays); 16 g ai/ha): 10
Plant response rating, Corn (corn (Zea mays); 31 g ai/ha): 10
Plant response rating, Corn (corn (Zea mays); 62 g ai/ha): 20
Plant response rating, Corn (corn (Zea mays); 125 g ai/ha): 15
Plant response rating, Morningglory ([2]; 16 g ai/ha): 20
Plant response rating, Morningglory ([2]; 31 g ai/ha): 35
Plant response rating, Morningglory ([2]; 62 g ai/ha): 40
Plant response rating, Morningglory ([2]; 125 g ai/ha): 45
Plant response rating, Waterhemp ([3]; 16 g ai/ha): 60
Plant response rating, Waterhemp ([3]; 31 g ai/ha): 70
Plant response rating, Waterhemp ([3]; 62 g ai/ha): 85
Plant response rating, Waterhemp ([3]; 125 g ai/ha): 85
Plant response rating, Ragweed ([4]; 16 g ai/ha): 25
Plant response rating, Ragweed ([4]; 31 g ai/ha): 30
Plant response rating, Ragweed ([4]; 62 g ai/ha): 35
Plant response rating, Ragweed ([4]; 125 g ai/ha): 55
Plant response rating, Chickweed ([5]; 16 g ai/ha): 0
Plant response rating, Chickweed ([5]; 31 g ai/ha): 20
Plant response rating, Chickweed ([5]; 62 g ai/ha): 35
Plant response rating, Chickweed ([5]; 125 g ai/ha): 55
Plant response rating, Soybean (soybean (Glycine max); 16 g ai/ha): 50
Plant response rating, Soybean (soybean (Glycine max); 31 g ai/ha): 40
Plant response rating, Soybean (soybean (Glycine max); 62 g ai/ha): 50
Plant response rating, Soybean (soybean (Glycine max); 125 g ai/ha): 55
Plant response rating, Kochia (kochia (Kochia scoparia); 16 g ai/ha): 10
Plant response rating, Kochia (kochia (Kochia scoparia); 31 g ai/ha): 50
Plant response rating, Kochia (kochia (Kochia scoparia); 62 g ai/ha): 70
Plant response rating, Kochia (kochia (Kochia scoparia); 125 g ai/ha): 85
Plant response rating, Ryegrass, Italian ([6]; 16 g ai/ha): 0
Plant response rating, Ryegrass, Italian ([6]; 31 g ai/ha): 5
Plant response rating, Ryegrass, Italian ([6]; 62 g ai/ha): 5
Plant response rating, Ryegrass, Italian ([6]; 125 g ai/ha): 10
Plant response rating, Galium ([7]; 16 g ai/ha): 45
Plant response rating, Galium ([7]; 31 g ai/ha): 50
Plant response rating, Galium ([7]; 62 g ai/ha): 60
Plant response rating, Galium ([7]; 125 g ai/ha): 75
Plant response rating, Oat, Wild (wild oat (Avena fatua); 16 g ai/ha): 0
Plant response rating, Oat, Wild (wild oat (Avena fatua); 31 g ai/ha): 0
Plant response rating, Oat, Wild (wild oat (Avena fatua); 62 g ai/ha): 5
Plant response rating, Oat, Wild (wild oat (Avena fatua); 125 g ai/ha): 5
Plant response rating, Blackgrass ([8]; 16 g ai/ha): 5
Plant response rating, Blackgrass ([8]; 31 g ai/ha): 5
Plant response rating, Blackgrass ([8]; 62 g ai/ha): 10
Plant response rating, Blackgrass ([8]; 125 g ai/ha): 20
Plant response rating, Crabgrass, Large ([9]; 16 g ai/ha): 10
Plant response rating, Crabgrass, Large ([9]; 31 g ai/ha): 10
Plant response rating, Crabgrass, Large ([9]; 62 g ai/ha): 15
Plant response rating, Crabgrass, Large ([9]; 125 g ai/ha): 15
Plant response rating, Wheat ([10]; 16 g ai/ha): 0
Plant response rating, Wheat ([10]; 31 g ai/ha): 0
Plant response rating, Wheat ([10]; 62 g ai/ha): 0
Plant response rating, Wheat ([10]; 125 g ai/ha): 0
Plant response rating, Oilseed Rape ([11]; 16 g ai/ha): 20
Plant response rating, Oilseed Rape ([11]; 31 g ai/ha): 35
Plant response rating, Oilseed Rape ([11]; 62 g ai/ha): 40
Plant response rating, Oilseed Rape ([11]; 125 g ai/ha): 35
Plant response rating, Barnyardgrass ([12]; 16 g ai/ha): 5
Plant response rating, Barnyardgrass ([12]; 31 g ai/ha): 5
Plant response rating, Barnyardgrass ([12]; 62 g ai/ha): 5
Plant response rating, Barnyardgrass ([12]; 125 g ai/ha): 10
Plant response rating, Pigweed ([13]; 16 g ai/ha): 70
Plant response rating, Pigweed ([13]; 31 g ai/ha): 65
Plant response rating, Pigweed ([13]; 62 g ai/ha): 85
Plant response rating, Pigweed ([13]; 125 g ai/ha): 80
Plant response rating, Lambsquarters ([14]; 16 g ai/ha): 25
Plant response rating, Lambsquarters ([14]; 31 g ai/ha): 65
Plant response rating, Lambsquarters ([14]; 62 g ai/ha): 65
Plant response rating, Lambsquarters ([14]; 125 g ai/ha): 75
Plant response rating, Velvetleaf ([15]; 16 g ai/ha): 25
Plant response rating, Velvetleaf ([15]; 31 g ai/ha): 35
Plant response rating, Velvetleaf ([15]; 62 g ai/ha): 40
Plant response rating, Velvetleaf ([15]; 125 g ai/ha): 65
